According to article PMC8286840, “Identifying SARS-CoV-2 antiviral compounds by screening for small molecule inhibitors of Nsp3 papain-like protease” (Biochemical Journal, 2021):
Structures can show the parent of a compound that is named as a salt. Where two headings read alike, the source gives them in different places.

Columns and labels:
[1] = molecular target: T1, SARS-CoV-2 PLpro (nsp3 1564–1878) (Severe acute respiratory syndrome coronavirus 2, UniProt P0DTD1); test: biochemical; design: FRET-quenched peptide (Pro3) cleavage by PLpro, 10 min pre-incubation, slope over 20 min, normalised to no-compound control; conditions: low concentration screen
[2] = molecular target: T1, SARS-CoV-2 PLpro (nsp3 1564–1878); test: biochemical; design: FRET-quenched peptide (Pro3) cleavage by PLpro, 10 min pre-incubation, slope over 20 min, normalised to no-compound control; conditions: high concentration screen
[3] = Well no.=831, read-out: % of control remaining
[4] = Well no.=3157, read-out: % of control remaining
[5] = Well no.=2440, read-out: % of control remaining
[6] = Well no.=4520, read-out: % of control remaining
[7] = read-out: % of control remaining, Well no.=4642
[8] = Well no.=2582, read-out: % of control remaining
[9] = Well no.=3416, read-out: % of control remaining
[10] = Well no.=910, read-out: % of control remaining
[11] = Well no.=1735, read-out: % of control remaining
[12] = Well no.=7677, read-out: % of control remaining
[13] = Well no.=6999, read-out: % of control remaining
[14] = Well no.=3436, read-out: % of control remaining
[15] = Well no.=6836, read-out: % of control remaining
[16] = Well no.=354, read-out: % of control remaining
[17] = Well no.=16, read-out: % of control remaining
[18] = Well no.=5052, read-out: % of control remaining
[19] = Well no.=5307, read-out: % of control remaining
[20] = Well no.=2518, read-out: % of control remaining
[21] = Well no.=2145, read-out: % of control remaining
[22] = Well no.=3101, read-out: % of control remaining
[23] = Well no.=1452, read-out: % of control remaining
[24] = Well no.=1173, read-out: % of control remaining
[25] = Well no.=4780, read-out: % of control remaining
[26] = Well no.=1036, read-out: % of control remaining
[27] = Well no.=8935, read-out: % of control remaining
[28] = Well no.=276, read-out: % of control remaining
[29] = Well no.=3585, read-out: % of control remaining
[30] = Well no.=1334, read-out: % of control remaining
[31] = Well no.=6070, read-out: % of control remaining
[32] = Well no.=3951, read-out: % of control remaining
[33] = Well no.=255, read-out: % of control remaining
[34] = Well no.=2314, read-out: % of control remaining
[35] = Well no.=42, read-out: % of control remaining
[36] = Well no.=3129, read-out: % of control remaining
[37] = Well no.=1277, read-out: % of control remaining

CCN1C[C@]2(C)CC[C@H](O)[C@]34C1[C@@H](C[C@H]23)[C@@]1(O)C[C@H](OC)[C@H]2C[C@@H]4[C@@H]1[C@H]2O [Karakoline]
remaining activity at 1.25 µM [1, 3]: 102% | remaining activity at 1.25 µM [1, 4]: 111% | remaining activity at 3.75 µM [2, 3]: 99.5% | remaining activity at 3.75 µM [2, 4]: 103%

NC(=O)c1ccc(-c2nc(-c3ccccn3)c(-c3ccc4c(c3)OCO4)[nH]2)cc1 [SB 431542 - 4-[4-(1,3-benzodioxol-5-yl)-5-(2-pyridinyl)-1H-imidazol-2-yl]benzamide]
remaining activity at 1.25 µM [1, 5]: 106% | remaining activity at 3.75 µM [2, 5]: 107%

CCCCCC(O)c1cccc(OCc2ccc3ccccc3n2)c1 (stereo not shown) [REV-5901]
remaining activity at 1.25 µM [1, 6]: 92.4% | remaining activity at 3.75 µM [2, 6]: 95.4%

CC(C)[C@]12O[C@H]1[C@@H]1O[C@]13[C@]1(O[C@H]1C[C@H]1C4=C(CC[C@@]13C)C(=O)OC4)[C@@H]2O [Triptolide]
remaining activity at 1.25 µM [1, 7]: 99.8% | remaining activity at 3.75 µM [2, 7]: 98.1%

Cc1cc(I)ccc1Nc1c(C(=O)NOCC2CC2)cc(F)c(F)c1F [PD 198306 - N-(Cyclopropylmethoxy)-3,4,5-trifluoro-2-[(4-iodo-2-methylphenyl)amino]-benzamide]
remaining activity at 1.25 µM [1, 8]: 92.1% | remaining activity at 3.75 µM [2, 8]: 87.7%

CC[C@H](CC[C@@H](C)[C@H]1CC[C@H]2[C@@H]3CC=C4C[C@@H](O)CC[C@]4(C)[C@H]3CC[C@]12C)C(C)C
remaining activity at 1.25 µM [1, 9]: 93.1% | remaining activity at 3.75 µM [2, 9]: 96.8%

CCCn1c(=O)[nH]c(=O)c2[nH]cnc21 [3-n-Propylxanthine]
remaining activity at 1.25 µM [1, 10]: 105% | remaining activity at 3.75 µM [2, 10]: 104%

CC(C)NCC(O)COc1ccc(CCOCC2CC2)cc1 (stereo not shown) [Betaxolol.HCl]
remaining activity at 1.25 µM [1, 11]: 99.1% | remaining activity at 3.75 µM [2, 11]: 99.8%

CN1[C@@H]2CC[C@H]1C[C@@H](OC(=O)C(CO)c1ccccc1)C2 (stereo partly shown) [Atropine (sulfate monohydrate)]
remaining activity at 1.25 µM [1, 12]: 93.8% | remaining activity at 3.75 µM [2, 12]: 94.5%

Cc1nc2ccc(NC(=O)Nc3ccnc4cccnc34)cc2o1 [SB-334867 (free base)]
remaining activity at 1.25 µM [1, 13]: 101% | remaining activity at 3.75 µM [2, 13]: 104%

COc1c2occc2c(OC)c2c(=O)cc(C)oc12 [Khellin]
remaining activity at 1.25 µM [1, 14]: 92.2% | remaining activity at 3.75 µM [2, 14]: 94.1%

Cc1ncc(CNC(=O)N(CCCl)N=O)c(N)n1 [Nimustine (hydrochloride)]
remaining activity at 1.25 µM [1, 15]: 95.8% | remaining activity at 3.75 µM [2, 15]: 95.5%

O=c1[nH]c(=O)c2nc3ccccc3nc2[nH]1 [Alloxazine]
remaining activity at 1.25 µM [1, 16]: 90.3% | remaining activity at 3.75 µM [2, 16]: 88.5%

C=CCn1c(=O)c2c(nc(-c3ccc(S(=O)(=O)O)cc3)n2C)n(C)c1=O [1-Allyl-3,7-dimethyl-8-p-sulfophenylxanthine]
remaining activity at 1.25 µM [1, 17]: 98.3% | remaining activity at 3.75 µM [2, 17]: 89.6%

CCC[C@@H]1C[C@@H](C(=O)N[C@@H]([C@H]2O[C@H](SC)[C@H](OP(=O)(O)O)[C@@H](O)[C@H]2O)[C@H](C)Cl)N(C)C1 [Clindamycin phosphate]
remaining activity at 1.25 µM [1, 18]: 105% | remaining activity at 3.75 µM [2, 18]: 104%

O=C(O)Cc1ccccc1Nc1c(Cl)cccc1Cl [Diclofenac Potassium]
remaining activity at 1.25 µM [1, 19]: 101% | remaining activity at 3.75 µM [2, 19]: 100%

N#Cc1c(NC(=O)c2cccc3ccccc23)sc2c1CCCC2 [JNK Inhibitor IX]
remaining activity at 1.25 µM [1, 20]: 99.9% | remaining activity at 3.75 µM [2, 20]: 103%

CNNCc1ccc(C(=O)NC(C)C)cc1 [Procarbazine]
remaining activity at 1.25 µM [1, 21]: 104% | remaining activity at 3.75 µM [2, 21]: 105%

Cc1c(C(=O)O)c(O)cc2c1C(=O)c1c(O)c([C@@H]3O[C@H](CO)[C@@H](O)[C@H](O)[C@H]3O)c(O)c(O)c1C2=O [Carminic acid]
remaining activity at 1.25 µM [1, 22]: 102% | remaining activity at 3.75 µM [2, 22]: 103%

CC(C)[C@@H]1NC(=O)[C@H](CCCCN)NC(=O)[C@@H](Cc2c[nH]c3ccccc23)NC(=O)[C@H](Cc2ccc(O)cc2)NC(=O)[C@H](C)N(C)C(=O)[C@H](Cc2ccccc2)NC1=O [Seglitide]
remaining activity at 1.25 µM [1, 23]: 97% | remaining activity at 3.75 µM [2, 23]: 97.2%

CCN(CC)CCCC(C)Nc1c2ccc(Cl)cc2nc2ccc(OC)cc12 (stereo not shown) [Quinacrine dihydrochloride]
remaining activity at 1.25 µM [1, 24]: 96.3% | remaining activity at 3.75 µM [2, 24]: 98.3%

CC(C)(CO)c1cc2cc(NC(=O)C3(c4ccc5c(c4)OC(F)(F)O5)CC3)c(F)cc2n1C[C@@H](O)CO [VX-661]
remaining activity at 1.25 µM [1, 25]: 97% | remaining activity at 3.75 µM [2, 25]: 94.1%

Oc1ccc2c3c1O[C@H]1c4oc5ccccc5c4C[C@@]4(O)[C@@H](C2)N(CC2CC2)CC[C@]314 [Naltriben methanesulfonate]
remaining activity at 1.25 µM [1, 26]: 92.8% | remaining activity at 3.75 µM [2, 26]: 97.4%

O=c1ccn([C@@H]2O[C@H](COP(=O)(O)O)[C@@H](O)[C@H]2O)c(=O)[nH]1 [Uridine 5'-monophosphate disodium salt]
remaining activity at 1.25 µM [1, 27]: 112% | remaining activity at 3.75 µM [2, 27]: 97.2%

C[C@H](Cc1ccc2c(c1)OC(C(=O)O)(C(=O)O)O2)NC[C@H](O)c1cccc(Cl)c1 [CL 316,243]
remaining activity at 1.25 µM [1, 28]: 96.9% | remaining activity at 3.75 µM [2, 28]: 101%

C[C@H]1[C@H](C)CC[C@]2(C(=O)O)CC[C@]3(C)C(=CC[C@@H]4[C@@]5(C)CC[C@H](O)C(C)(C)[C@@H]5CC[C@]43C)[C@H]12 [Ursolic acid]
remaining activity at 1.25 µM [1, 29]: 107% | remaining activity at 3.75 µM [2, 29]: 113%

CCCN(CCC)[C@H]1CCc2c(F)ccc(O)c2C1 [S(-)-UH-301 hydrochloride]
remaining activity at 1.25 µM [1, 30]: 97.2% | remaining activity at 3.75 µM [2, 30]: 95.3%

COCCCOc1ccnc(C[S+]([O-])c2nc3ccccc3[nH]2)c1C (stereo not shown) [sodium 2-((4-(3-methoxypropoxy)-3-methylpyridin-2-yl)methylsulfinyl)benzo[d]imidazol-1-ide]
remaining activity at 1.25 µM [1, 31]: 95.8% | remaining activity at 3.75 µM [2, 31]: 93.7%

O=C1CCN(c2ccccc2)N1 [Phenidone]
remaining activity at 1.25 µM [1, 32]: 103% | remaining activity at 3.75 µM [2, 32]: 101%

O=C1Cc2c([nH]c3ccc([N+](=O)[O-])cc23)-c2ccccc2N1 [Alsterpaullone]
remaining activity at 1.25 µM [1, 33]: 104% | remaining activity at 1.25 µM [1, 34]: 101% | remaining activity at 3.75 µM [2, 33]: 106% | remaining activity at 3.75 µM [2, 34]: 105%

C[C@@]12C(=O)OC(=O)[C@]1(C)[C@H]1CC[C@@H]2O1 [Cantharidin]
remaining activity at 1.25 µM [1, 35]: 94.6% | remaining activity at 1.25 µM [1, 36]: 107% | remaining activity at 3.75 µM [2, 35]: 97.9% | remaining activity at 3.75 µM [2, 36]: 108%

O=C1NCN(c2ccccc2)C12CCN(CC1COc3ccccc3O1)CC2 (stereo not shown) [Spiroxatrine]
remaining activity at 1.25 µM [1, 37]: 99.7% | remaining activity at 3.75 µM [2, 37]: 102%
